Data: US12551437B2, “Liposome compositions comprising weak acid drugs and uses thereof” (Pharmosa Biopharm Inc., priority 2017, dated 2026)

Legend:
[1] = cited from earlier work
[2] = Drug loading and encapsulation efficiency of liposome suspensions (G-25 column separation, HPLC); assay type: physicochemical
Procedure: Liposome colloidal suspensions were prepared by ethanol injection technique. […] (DSPE-PEG2000) were dissolved in 2.86 ml of ethanol. The lipid solution in ethanol was injected into 17.4 ml of sodium acetate (200 mM or 400 mM) with vigorous stirring at 60° C. Liposomes were formed as soon as the lipid solution was in contact with sodium acetate. This was followed by extruding the liposome suspension through a 200 nm and a 100 nm polycarbonate membrane (six times, respectively). The liposome with about 100 nm was obtained and diafiltrated against a citrate buffer (pH 5.5) to form a higher inside/lower outside pH gradient between the external medium and the internal aqueous medium of the liposomes. The empty liposome suspension was then stored at 4° C. before drug loading process.
PGE1 (alprostadil) was added to the liposome suspension in the preceding paragraph at various drug/lipid molar ratios at room temperature (25° C.) for 20 min. The PGE1 loaded liposome suspension was stored at 4° C.
The liposome suspension was prepared according to the method described in Section 1.1, except that sodium acetate (200 mM or 400 mM) was replaced by sodium bicarbonate (e.g. 200 mM, 400 mM or other concentrations).
The amount of the drug encapsulated into the liposome was quantified using Waters Alliance® HPLC system with a Photodiode Array (PDA) Detector. […] Separation was performed in C18 Column (Phenomenex Prodigy 5U ODS-3 150×4.6 mm), and then post-reaction was carried out by mixed with IN of KOH at 65° C. The peak of the drug e.g. PGE1 was detected at 280 nm. The retention time was about 4.6 minutes.
Encapsulation efficiency (EE), i.e. the percentage of the drug encapsulated (or loaded) in the internal aqueous medium of the liposomes to the total amount of the drug present in the liposome suspension (i.e. drug in the external medium and drug loaded into the internal aqueous medium of the liposomes) was quantified as follows. Briefly, the liposome suspension was subjected to column chromatography. The free or non-associated drug (i.e. the drug in the external medium) and the liposomes containing the encapsulated drugs in the internal aqueous medium were separated from each other by eluting the liposome suspension through a G-25 column. The amount of the free drug was determined using Waters HPLC with PDA detection, and the amount of the encapsulated drug in the internal aqueous medium of the liposome, after destructing the liposomes with methanol (90% methanol and 10% liposome suspension), was also determined using the same method. The encapsulation efficiency was calculated using the following formula,
[formula] where L is the amount of the encapsulated drug in the internal aqueous medium of the liposomes, and F is the amount of the free drug in the external medium.
In addition, the internal drug concentration (mM) was calculated as follows. Internal drug concentration (mM)=[Drug [μg/mL]×EE %/molecular weight]/[trapped volume*]

[3] = system: pulmonary hypertension; test: Hypoxia-induced pulmonary hypertension in rats, mean pulmonary arterial pressure (PAP); assay type: in vivo, Sprague Dawley rats; conditions: treprostinil at 6 μg/kg, single dose, microsprayer at the trachea bifurcation, hypoxic rats (FiO2=0.1)
Procedure: To induce pulmonary hypertension, a pressure catheter was inserted into the pulmonary artery of each rat. One end of the catheter was exposed at the nape of the neck and connected to a pressure transducer. 24 Hours after the catheter insertion, the rats were transferred into a hypoxic chamber where the oxygen (O2) level was reduced to 10% (FiO2=0.1) by increasing the level of nitrogen (N2). Once stable pulmonary hypertension was established, each rat was administered with a single dose of the three test articles: saline (N=6), free treprostinil at 6 μg/kg (N=6) or the pharmaceutical composition of Example 4 with treprostinil at 6 μg/kg (liposomal treprostinil, N=6). The test article was administered using a microsprayer at the trachea bifurcation of the rat. Following the test article administration, mean pulmonary arterial pressure (PAP) was measured at scheduled time points.

[4] = Incubation of liposome suspensions at simulated human physiological condition: pH of external medium and leakage; assay type: physicochemical; conditions: 20 minutes; for pH at incubation temperature: external buffer 280 mOsm/Kg, citrate 10 mM; for liposome leakage: 280 mOsm/Kg
Procedure: Liposome suspensions using various concentrations of sodium bicarbonate for PGE1 loading were prepared according to section 1.1 of Example 1. The liposome suspensions were incubated at 25° C. and 37° C. for 20 minutes in an external buffer with osmolarity between 280-300 mOsm/Kg, to simulate human physiological condition.
Incubating formulations with a bicarbonate concentration of higher than about 1000 mM in human physiological condition (37° C. and 280-300 mOsm/Kg) generated more CO2, and lead to liposome leakage. The leaked liposomes released bicarbonate salt and the drug from the internal aqueous medium into the external medium and increased the pH of external medium to higher than 6.5.

[5] = liposomal formulation (4-2) HSPC:cholesterol:DSPG 3:2:0.075, internal bicarbonate salt 400 mM, drug loading at 40° C.
[6] = liposomal formulation (4-1) HSPC:cholesterol:DSPE-mPEG2000 3:2:0.075, internal bicarbonate salt 200 mM, drug loading at 25° C.
[7] = liposomal formulation (4-1) HSPC:cholesterol:DSPE-mPEG2000 3:2:0.075, internal bicarbonate salt 400 mM, drug loading at 25° C.
[8] = liposomal formulation (4-1) HSPC:cholesterol:DSPE-mPEG2000 3:2:0.075, internal bicarbonate salt 400 mM, drug loading at 40° C.
[9] = liposomal formulation (4-3) DPPC:Cholesterol:DSPE-mPEG2000 3:2:0.075, internal bicarbonate salt 400 mM, drug loading at 40° C.
[10] = liposomal formulation (4-4) DSPC:DPPC:Cholesterol:mPEG2000-DSPE 2.7:0.3:2:0.075, internal bicarbonate salt 250 mM, drug loading at 40° C.
[11] = liposomal formulation (4-5) HSPC:Cholesterol:mPEG2000-DSPE:stearylamine 3:2:0.075:0.025, internal bicarbonate salt 400 mM, drug loading at 40° C.
[12] = liposomal formulation (4-6) HSPC:DMPC:Cholesterol:mPEG2000-DSPE 2.7:0.3:2:0.075, internal bicarbonate salt 400 mM, drug loading at 40° C.
[13] = sodium bicarbonate internal salt 50 mM, 10 mM of phospholipid
[14] = sodium bicarbonate internal salt 150 mM, 10 mM of phospholipid
[15] = sodium bicarbonate internal salt 200 mM, 10 mM of phospholipid
[16] = sodium bicarbonate internal salt 250 mM, 10 mM of phospholipid
[17] = sodium bicarbonate internal salt 300 mM, 10 mM of phospholipid
[18] = sodium bicarbonate internal salt 400 mM, 10 mM of phospholipid
[19] = sodium bicarbonate internal salt 500 mM, 5 mM of phospholipid
[20] = sodium bicarbonate internal salt 600 mM, 10 mM of phospholipid
[21] = sodium bicarbonate internal salt 800 mM, 10 mM of phospholipid

SMILES: CC#CCC(C)[C@H](O)/C=C/[C@@H]1[C@H]2c3cccc(CCCC(=O)O)c3O[C@H]2C[C@H]1O (mixture of isomers) [Beraprost]
- pKa [1]: 4.2

SMILES: O=C(O)COC(=O)Cc1ccccc1Nc1c(Cl)cccc1Cl [Aceclofenac]
- pKa [1]: 4.7

SMILES: CC1(C)[C@@H](OC(=O)CCC(=O)O)CC[C@]2(C)[C@H]3C(=O)C=C4[C@@H]5C[C@@](C)(C(=O)O)CC[C@]5(C)CC[C@@]4(C)[C@]3(C)CC[C@@H]12 [Carbenoxolone sodium]
- pKa [1]: 4.7

SMILES: C[C@@H]1C[C@H]2[C@@H]3CCC4=CC(=O)C=C[C@]4(C)[C@@]3(F)[C@@H](O)C[C@]2(C)[C@@]1(O)C(=O)COP(=O)(O)O [Dexamethasone sodium phosphate]
- pKa [1]: 1.89

SMILES: CCCCC[C@H](O)/C=C/[C@@H]1[C@H]2C/C(=C/CCCC(=O)O)O[C@H]2C[C@H]1O [Epoprostenol]
- pKa [1]: 4.43

SMILES: C[C@]12CCC(=O)C=C1CC[C@@H]1[C@@H]2[C@@H](O)C[C@@]2(C)[C@H]1CC[C@]2(O)C(=O)COC(=O)CCC(=O)O [Hydrocortisone sodium succinate]
- pKa [1]: 3.66

SMILES: CC#CCC(C)[C@H](O)/C=C/[C@@H]1[C@H]2C/C(=C/CCCC(=O)O)C[C@H]2C[C@H]1O (stereo partly drawn) [Iloprost]
- E.E. [2, 5]: 97.4%
- Internal [drug] [2, 5]: 170.34 mM
- Internal drug to internal salt molar ratio [2, 5]: 0.426
- Measured [drug] [2, 5]: 395.9 µg/mL
- pKa [1]: 4.66

SMILES: O=C(c1ccccc1)c1ccc2n1CCC2C(=O)O (stereo not drawn) [Ketorolac sodium]
- pKa [1]: 3.8

SMILES: O=C(c1ccccc1)c1ccc2n1CCC2C(=O)O (stereo not drawn) [Ketorolac]
- E.E. [2, 6]: 91.0%
- Internal [drug] [2, 6]: 87.06 mM
- Internal drug to internal salt molar ratio [2, 6]: 0.435
- Measured [drug] [2, 6]: 766.8 µg/mL
- E.E. [2, 7]: 91.2%
- Internal [drug] [2, 7]: 135.71 mM
- Internal drug to internal salt molar ratio [2, 7]: 0.339
- Measured [drug] [2, 7]: 1192.7 µg/mL

SMILES: CN1C(C(=O)Nc2ccccn2)=C(O)c2sc(Cl)cc2S1(=O)=O [Lornoxicam]
- E.E. [2, 8]: 93.3%
- Internal [drug] [2, 8]: 88.41 mM
- Internal drug to internal salt molar ratio [2, 8]: 0.221
- Measured [drug] [2, 8]: 1106.3 µg/mL
- pKa [1]: 1.8

SMILES: CC(C)N(CCCCOCC(=O)O)c1cnc(-c2ccccc2)c(-c2ccccc2)n1 [MIRE-269 (ACT-333679)]
- E.E. [2, 5]: 98.7%
- Internal [drug] [2, 5]: 65.41 mM
- Internal drug to internal salt molar ratio [2, 5]: 0.164
- Measured [drug] [2, 5]: 174.6 µg/mL
- pKa [1]: 3.77

SMILES: C[C@H]1C[C@@H]2[C@H]([C@@H](O)C[C@@]3(C)[C@H]2CC[C@]3(O)C(=O)COC(=O)CCC(=O)O)[C@@]2(C)C=CC(=O)C=C12 [Methylprednisolone Hemisuccinate (MPSS), Methylprednisolone Hemisuccinate]
- E.E. [2, 8]: 85.9%
- Internal [drug] [2, 8]: 65.27 mM
- Internal drug to internal salt molar ratio [2, 8]: 0.163
- Measured [drug] [2, 8]: 1132.2 µg/mL
- pKa [1]: 4.29

SMILES: C[C@H]1C[C@@H]2[C@H]([C@@H](O)C[C@@]3(C)[C@H]2CC[C@]3(O)C(=O)COC(=O)CCC(=O)O)[C@@]2(C)C=CC(=O)C=C12 [Methylprednisolone sodium succinate]
- pKa [1]: 4.6

SMILES: O=C(O)CCc1nc(-c2ccccc2)c(-c2ccccc2)o1 [Oxaprozin]
- pKa [1]: 4.95

SMILES: CN1C(C(=O)Nc2ccccn2)=C(O)c2ccccc2S1(=O)=O [Piroxicam]
- E.E. [2, 8]: 84.5%
- Internal [drug] [2, 8]: 76.72 mM
- Internal drug to internal salt molar ratio [2, 8]: 0.192
- Measured [drug] [2, 8]: 944.7 µg/mL
- pKa [1]: 4.8

SMILES: CCCCC[C@H](O)CC[C@@H]1[C@H]2Cc3cccc(OCC(=O)O)c3C[C@H]2C[C@H]1O [Prostacycline (treprostinil), treprostinil]
- E.E. [2, 5]: 97.6%
- Internal [drug] [2, 5]: 121.78 mM
- Internal drug to internal salt molar ratio [2, 5]: 0.304
- Measured [drug] [2, 5]: 1530.0 µg/mL
- E.E. [2, 9]: 90.4%
- Internal [drug] [2, 9]: 115.01 mM
- Internal drug to internal salt molar ratio [2, 9]: 0.288
- Measured [drug] [2, 9]: 1560 µg/mL
- E.E. [2, 10]: 97.4%
- Internal [drug] [2, 10]: 77.84 mM
- Internal drug to internal salt molar ratio [2, 10]: 0.311
- Measured [drug] [2, 10]: 980 µg/mL
- E.E. [2, 11]: 93.7%
- Internal [drug] [2, 11]: 114.62 mM
- Internal drug to internal salt molar ratio [2, 11]: 0.287
- Measured [drug] [2, 11]: 1500 µg/mL
- E.E. [2, 12]: 94.5%
- Internal [drug] [2, 12]: 119.45 mM
- Internal drug to internal salt molar ratio [2, 12]: 0.299
- Measured [drug] [2, 12]: 1550 µg/mL
- maximum reduction of mean PAP [3]: 20%

SMILES: CCCCC[C@H](O)/C=C/[C@H]1[C@H](O)CC(=O)[C@@H]1CCCCCCC(=O)O [Prostaglandin E1 (PGE1), Prostaglandin E1]
- E.E. [2, 7]: 92.8%
- Internal [drug] [2, 7]: 161.81 mM
- Internal drug to internal salt molar ratio [2, 7]: 0.405
- Measured [drug] [2, 7]: 1940.8 µg/mL
- E.E. [2, 13]: 93.8%
- Internal [PGE1] [2, 13]: 19.08 mM
- Internal drug to internal salt molar ratio [2, 13]: 0.382
- [PGE1] [2, 13]: 226.4 µg/mL
- E.E. [2, 14]: 95.7%
- Internal [PGE1] [2, 14]: 60.25 mM
- Internal drug to internal salt molar ratio [2, 14]: 0.402
- [PGE1] [2, 14]: 700.7 µg/mL
- E.E. [2, 15]: 95.9%
- Internal [PGE1] [2, 15]: 80.47 mM
- Internal drug to internal salt molar ratio [2, 15]: 0.402
- [PGE1] [2, 15]: 934.0 µg/mL
- E.E. [2, 16]: 92.3%
- Internal [PGE1] [2, 16]: 119.94 mM
- Internal drug to internal salt molar ratio [2, 16]: 0.480
- [PGE1] [2, 16]: 1446.4 µg/mL
- E.E. [2, 17]: 92.7%
- Internal [PGE1] [2, 17]: 146.32 mM
- Internal drug to internal salt molar ratio [2, 17]: 0.488
- [PGE1] [2, 17]: 1756.9 µg/mL
- E.E. [2, 18]: 92.8%
- Internal [PGE1] [2, 18]: 161.81 mM
- Internal drug to internal salt molar ratio [2, 18]: 0.405
- [PGE1] [2, 18]: 1940.8 µg/mL
- E.E. [2, 19]: 96.0%
- Internal [PGE1] [2, 19]: 252.52 mM
- Internal drug to internal salt molar ratio [2, 19]: 0.505
- [PGE1] [2, 19]: 1463.9 µg/mL
- E.E. [2, 20]: 93.1%
- Internal [PGE1] [2, 20]: 215.66 mM
- Internal drug to internal salt molar ratio [2, 20]: 0.359
- [PGE1] [2, 20]: 2578.3 µg/mL
- E.E. [2, 21]: 90.2%
- Internal [PGE1] [2, 21]: 130.87 mM
- Internal drug to internal salt molar ratio [2, 21]: 0.164
- [PGE1] [2, 21]: 1614.9 µg/mL
- pH at incubation temperature ([4]; bicarbonate 600 mM, 25° C.): 5.42
- pH at incubation temperature ([4]; bicarbonate 600 mM, 37° C.): 5.43
- pH at incubation temperature ([4]; bicarbonate 800 mM, 25° C.): 5.38
- pH at incubation temperature ([4]; bicarbonate 800 mM, 37° C.): 5.53
- pH at incubation temperature ([4]; bicarbonate 1000 mM, 25° C.): 5.37
- liposome leakage ([4]; bicarbonate 1000 mM, 37° C.): leakage
- pH at incubation temperature ([4]; bicarbonate 1000 mM, 37° C.): 6.68
- pH at incubation temperature ([4]; bicarbonate 1300 mM, 25° C.): 5.44
- liposome leakage ([4]; bicarbonate 1300 mM, 37° C.): leakage
- pH at incubation temperature ([4]; bicarbonate 1300 mM, 37° C.): 6.74
- pKa [1]: 4.35

SMILES: CCCCC[C@H](O)/C=C/[C@H]1[C@H](O)CC(=O)[C@@H]1C/C=C\CCCC(=O)O [Prostaglandin E2 (PGE2), Prostaglandin E2]
- pKa [1]: 4.3

SMILES: O=C(O)COC[C@H]1CC[C@H](COC(=O)N(c2ccccc2)c2ccc(Cl)cc2)CC1 [Ralinepag (APD811), Ralinepag]
- pKa [1]: 3.5

SMILES: O=C(Oc1ccccc1C(=O)O)c1ccccc1O [Salsalate (Disalcid), Salsalate]
- pKa [1]: 3.4
